Measured values reported in patent US20090197800A1, “Insulin Receptor Binding Peptides with Non-Insulin Gene Activation Profiles and Uses Thereof” (Novo Nordisk A/S, priority 2004, published 2009).
Ends that are not written are not given here.

Columns and labels:
primary rat hepatocytes = experiment: quantitative RT-PCR of mRNA expression in primary rat hepatocytes; format: cell-based; settings: 18 h; for effect on HMGCR mRNA level / effect on HMGCS1 mRNA level / effect on MVD mRNA level: 5 doses (0.1, 0.3, 1, 10, 100 nM), FIG. 3; for mRNA expression of fatty acid synthase (direction of regulation) / mRNA expression of glucose-6-phosphate catalytic subunit (direction of regulation): FIG. 4
Description: Male Wistar rats (˜200 g) were anaesthetized with a freshly prepared mixture (1:1) of Hyp-norn (0.05 mg/ml fentalyl/2.5 mg/ml fluabizone) and Dormicum (1.25 mg/ml midazolam) administered subcutaneously (1 ml/kg). Hepatocytes were isolated from rats fed ad libitum by a two-step perfusion technique essentially as described by Seglen, Biochem. J. (1999) 342 (545-550). Cell viability, assessed by Trypan Blue exclusion, was consistently greater than 80%. Cells were plated on to collagen-coated six-well plates in basal medium (Medium 199, 5.5 mM glucose supplemented 100 nM decadron, 1% penicillin (10,000 U)/streptomycin (10,000 U), and 1 nM insulin) with 4% fetal calf serum at a cell density of 1.2*10^6 cells/well. The medium was replaced 1 h after initial plating in order to remove dead cells. […] Following stimulation for 18 h, the cells were washed twice in PBS and 1.3 ml SV RNA-lysis buffer (Promega, Madison, Wis.) were added to each well.
(§1) Total RNA was isolated and DNase treated using SV96 total RNA isolation system (Promega, Madison, Wis.) following manufacturer's instructions.
(§2) cDNA was prepared from 100 ng of total RNA from each of the treatments (n=3) using random primers and TaqMan® Reverse (Applied Biosystems, Foster City, Calif. (USA)).
(§3) Transcription reagents were used/applied according to the manufacturer's instructions. Quantitative PCR was performed on each of the cDNA samples (10-fold dilutions of cDNA) using TaqMan® PCR core reagents (Applied Biosystems) on an ABI PRISM® 7000 Sequence Detection System (Applied Biosystems). Primers and FAM-labeled-probes for human and rat HMG-CoA reductase (HMGCR), mevalonate (diphospho) decarboxylase (MVD), HMG-CoA synthase 1 (HMGCS1), 18S rRNA, rat fatty acid synthase (FAS), and rat glucose-6-phosphate catalytic subunit (G6PC) were ordered as Assays-on-Demand (Applied Biosystems).
(§4) Probe sequences for these assays were as follows: HMGCR (human AC-[…] (assay Hs00168352_m1) (SEQ ID NO: 34), rat GCAC-[…] (assay Rn00565598_m1) (SEQ ID NO: 35)), MVD (human […] (assay Hs00159403_m1) (SEQ ID NO: 36), rat […] (assay Rn00579216_m1) (SEQ ID NO: 37)), HMGCS1 (human […] (assay Hs00266810_m1) (SEQ ID NO: 38), rat […] (assay Rn00568579_m1) (SEQ ID NO: 39)), 18S rRNA ([…]; assay HS99999901_s1) (SEQ ID NO: 40), FAS (rat […] (assay Rn00569117_m1) (SEQ ID NO: 41)), and G6PC (rat […] (assay Rn00565347_m1) (SEQ ID NO: 42)). Data were analyzed using ABI Prism 7000 SDS software (version 1.0; Applied Biosystems), and expression levels for HMGCR, MVD, HMGCS1, FAS, and were normalized to the 18S rRNA levels.

human SGBS adipocytes = experiment: cDNA microarray analysis of total RNA from SGBS adipocytes treated with S597 or human insulin; format: cell-based; settings: 30 nM, 18 hours, vs vehicle
Description: To compare the transcriptional effects of human insulin (HI) and an exemplary IRBP, IRBP S597, cDNA microarray analyses were performed on total RNA from human SGBS adipocytes treated with S597 (30 nM) or human insulin (30 nM) for 18 hours. The microarray hybridizations were carried out as dual color (Cy3/Cy5) hybridizations comparing vehicle treatments to insulin or S597 treatments. Three individual RNA samples from vehicle, S597, and insulin treated cells were compared, and all hybridizations were repeated with reversed dye combination (e.g. vehicle (Cy3) vs. S597 (Cy5) repeated as vehicle (Cy5) vs. S597 (Cy3)). The specific steps employed in this experimental analysis of the effects of HI versus IRBP S597 are described in the following paragraphs.
(§5) A human preadipocyte cell strain derived from subcutaneous adipose tissue of an infant with Simpson-Golabi-Behmel syndrome (SGBS) was plated out in 6 well plates and grown to confluence in DMEM/F12 medium (Gibco) containing 1% biotin, 1% panthothenic acid, 1% penicillin (10000 U)/streptomycin (10000 U), and 10% Fetal bovine serum (Gibco-Invitrogen, Carlsbad Calif. (USA)—“Gibco”). Differentiation of SGBS preadipocytes into adipocytes was induced by adding DMEM/F12 medium (Gibco) containing 1% biotin, 1% panthothenic acid, 1% penicillin (10,000 U)/streptomycin (10,000 U), 100 nM cortisol, […] triiodothyronine, 20 nM insulin, 250 nM dexamethasone (first 6 days), 500 μM IBMX (first 6 days), 2 μM rosiglitazone (first 3 days) and letting cells differentiate for 14 days.
(§6) Before stimulation with insulin and IRBP S597 the differentiated adipocytes were cultured in DMEM/F12 medium (Gibco) containing 1% biotin, 1% panthothenic acid, 1% penicillin (10,000 U)/streptomycin (10,000 U), 100 nM cortisol, and […] triiodothyronine for 2 days. Insulin and S597 (1, 3, 10, 30, 100 nM) were separately added to cells in DMEM/F12 medium (Gibco) containing 1% biotin, 1% panthothenic acid, 1% penicillin (10,000 U)/streptomycin (10,000 U), 100 nM cortisol, 200 pM triiodothyronine, and 0.1% BSA. Following stimulation for 18 h (18 hours), the cells were washed twice in PBS and 1.3 ml SV RNA-lysis buffer (Promega, Madison, Wis.) was added to each well.
as §1
Incyte Easy-To-Spot™ PCR-products (ETS1220 comprising ˜9000 human clones) (Amersham Biosciences) dissolved in 50% DMSO were spotted on to Corning Ultra Gaps slides (Corning Inc., Corning, N.Y.) at 55% relative humidity using the Molecular Dynamics Gen. III microarray spotter (Amersham Biosciences, Buckinghamshire, UK). All slides were baked at 80° C. for 4 h. Approximately 250 ng of total RNA from cells treated with vehicle, human insulin (30 nM) and S597 (30 nM) were used for synthesis of complementary RNA (amplified RNA (aRNA)) using Amino-allyl MessageAmp™ aRNA kit (Ambion, Austin, Tex.). Amino-allyl cDNA was synthesized from 1.5 μg of each RNA-amplification. The aRNA was incubated with random primer at 70° C. for 10 min. and subsequently chilled on ice for 30 sec. The primer annealed RNA was incubated with reaction mixture (1× Superscript II buffer (Life Technologies, Taastrup, Denmark), 10 mM DTT, 200 μM dGAT(−TP) 100 μM dCTP, 100 μM Cy-3/Cy-5-dCTP (Amersham Biosciences), and 200 units of Superscript II reverse transcriptase (Life Technologies, Taastrup, Denmark) at 42° C. for 2 h in a final volume of 20 μl. The RNA template was removed by alkaline denaturation (incubation with 2 μl 2.5 M NaOH at 37° C. for 15 min.). Amino-allyl labeled probes were purified using a Qiagen PCR purification kit (Qiagen). The amino-allyl cDNA was resuspended in 0.1 M NaHCO3 pH 9.0 and coupled to Cy3/Cy5 NHS-ester (Amersham Biosciences) for 1 h at RT in the dark. Unreacted ester groups were quenched by addition of hydroxylamine. Cy3- and Cy5-labeled cDNA was purified using Qiagen PCR purification kit (Qiagen). […]

SGBS adipocytes = experiment: quantitative RT-PCR of cholesterol biosynthesis genes in SGBS adipocytes; format: cell-based, human; settings: 18 h; for expression level of HMG-CoA synthase 1 (direction of regulation) / expression level of mevalonate (diphospho) decarboxylase (direction of regulation): quantitative RT-PCR, dose dependent, SGBS adipocytes, FIG. 2
Description: as §5, §6, §1, §2, §3, §4

[1] = quantitative RT-PCR, 1, 3, 10, 30, 100 nM, normalized to 18S, FIG. 1

**Q.** With “Ac-SLEEEWAQIECEVYGRGCPSESFYDWFERQL (cysteine pairing not given here) [S597]” as the substance, how does the “effect on HMGCR mRNA level” value (primary rat hepatocytes) read?
**A.** Its value is “no significant changes”.

**Q.** What about the “effect on HMGCS1 mRNA level” value (primary rat hepatocytes) of the same substance?
**A.** Its value is “no significant changes”.

**Q.** And the “effect on MVD mRNA level” value (primary rat hepatocytes)?
**A.** The value was “no significant changes”.

**Q.** What about the “mRNA expression of fatty acid synthase (direction of regulation)” value (primary rat hepatocytes) of the same substance?
**A.** The value was “upregulation”.

**Q.** And the “mRNA expression of glucose-6-phosphate catalytic subunit (direction of regulation)” value (primary rat hepatocytes)?
**A.** Its value is “downregulation”.

**Q.** And the “HMG-CoA reductase (HMGCR) gene downregulation” value (human SGBS adipocytes)?
**A.** The value was 2.1 fold.

**Q.** And the “HMG-CoA synthase 1 (HMGCS1) gene downregulation” value (human SGBS adipocytes)?
**A.** Its value is 1.4 fold.

**Q.** What about the “mevalonate (diphospho) decarboxylase (MVD) gene downregulation” value (human SGBS adipocytes) of the same substance?
**A.** Its value is 2.5 fold.

**Q.** What about the “dose dependant downregulation of HMG-CoA reductase mRNA” value (SGBS adipocytes; [1]) of the same substance?
**A.** The value was roughly 2 fold down.

**Q.** What about the “expression level of HMG-CoA synthase 1 (direction of regulation)” value (SGBS adipocytes) of the same substance?
**A.** The value was “downregulated”.

**Q.** What about the “expression level of mevalonate (diphospho) decarboxylase (direction of regulation)” value (SGBS adipocytes) of the same substance?
**A.** The value was “downregulated”.

**Q.** Which “effect on HMGCR mRNA level” value (primary rat hepatocytes) does the source give for human insulin here?
**A.** The value was “clear upregulating effect”.

**Q.** And the “effect on HMGCS1 mRNA level” value (primary rat hepatocytes)?
**A.** Its value is “clear upregulating effect”.

**Q.** And the “effect on MVD mRNA level” value (primary rat hepatocytes)?
**A.** The value was “clear upregulating effect”.

**Q.** And the “mRNA expression of fatty acid synthase (direction of regulation)” value (primary rat hepatocytes)?
**A.** Its value is “upregulation”.

**Q.** And the “mRNA expression of glucose-6-phosphate catalytic subunit (direction of regulation)” value (primary rat hepatocytes)?
**A.** The value was “downregulation”.

**Q.** And the “HMG-CoA reductase (HMGCR) gene upregulation” value (human SGBS adipocytes)?
**A.** The value was 2.3 fold.

**Q.** What about the “HMG-CoA synthase 1 (HMGCS1) gene upregulation” value (human SGBS adipocytes) of the same substance?
**A.** The value was 2.0 fold.

**Q.** What about the “mevalonate (diphospho) decarboxylase (MVD) gene upregulation” value (human SGBS adipocytes) of the same substance?
**A.** Its value is 2.1 fold.

**Q.** What about the “dose dependant upregulation of HMG-CoA reductase mRNA” value (SGBS adipocytes; [1]) of the same substance?
**A.** Its value is roughly 3 fold up.

**Q.** What about the “expression level of HMG-CoA synthase 1 (direction of regulation)” value (SGBS adipocytes) of the same substance?
**A.** Its value is “upregulated”.

**Q.** And the “expression level of mevalonate (diphospho) decarboxylase (direction of regulation)” value (SGBS adipocytes)?
**A.** The value was “upregulated”.
